Test results published in patent publication US5723625A, “Process for the production of specific isomer mixtures from oxindole alkaloids” (Immodal Pharmaka Gesellschaft m.b.H, priority 1994, dated 1998).

Tests used:
Assay type in all cases: physicochemical
physchem = conditions: 1-octanol/water
Text: (§1) Protonation of the alkaloid hinders partition into the solvent, but the dependence of the distribution coefficient on pH is different for each isomer due to their different basicity. When the isomerization takes place in such a two-phase system, the equilibrium obtained in the organic phase is different from that in the aqueous phase. As an example, the coefficients of distribution Ko/w of mitraphylline and isomitraphylline between 1-octanol and water at three pH values and the corresponding equilibria are given in table 6 (FIG.11). |Coefficients of distribution between 1-octanol and water KO/W for |mitraphylline and isomitraphylline and the resulting equilibria as a |function of pH at 25° C. (% per weight).

[1] = Effect of temperature and solvent on the equilibrium composition of the mitraphylline isomers
Text: The use of solvents with different polarity gave different equilibria, while other conditions were identical.

[2] = Equilibrium of mitraphylline isomers in the two-phase system 1-octanol/water; conditions: for resulting equilibrium (water): aqueous phase; for resulting equilibrium (octanol): octanol phase
Text: as §1

[3] = Effect of temperature and solvent on the equilibrium composition of the pteropodine isomers
Method: | Effect of temperature and solvent on the equilibrium composition | of the pteropodine isomers (temperature from 25 to | 50° C., % per weight) The use of solvents with different polarity gave different equilibria, while other conditions were identical.

[4] = Effect of pH on equilibrium and rate of isomerization; conditions: for dependence of isomer equilibrium mixture on pH: water-methanol 9:1, c=30 mg/l
Text: It is known from the literature (J. -L. Pousset, J. Poisson and M. Shamma, Bull.Soc.Chim. (1967), 2766) that oxindole alkaloids isomerize via a zwitterionic intermediate which is formed at the β-amino carboxyl system. There a double bond is formed between the amino nitrogen and the β-carbon, the bond between α and β-carbon is opened, and the spiro centre at the co-carbon becomes free for inversion (FIG. 2). […] The pH of a mixture of 9 parts of water and 1 part of methanol was adjusted to values from 2 to 9 by addition of phosphoric acid or sodium hydroxide, respectively. Pteropodine (c=30 mg/l) was isomerized in these solvents until the equilibrium was reached. […] The dependence of the pteropodine equilibrium on pH in pure water was investigated, too (FIG. 3b). […] (FIG. 4).

[5] = Effect of temperature on the rate of isomerization of pteropodine; conditions: water, c=20 mg/l, 50 hours
Method: The effect of temperature on the rate of reaction was investigated. Pteropodine was dissolved in water (c=20 mg/l) and isomerized at various temperatures for 50 hours. The reactions were monitored (FIG. 9). An increase of temperature by 12° C. accelerated the reaction by a factor of 5.

[6] = Rate of isomerization of pteropodine in solvents and solvent mixtures; conditions: 50° C.; for rate coefficient of isomerization k: k = k12 + k13 + k14 from initial rate
Method: It is known from the literature that oxindole alkaloids undergo isomerization in polar solvents. Therefore hexafluoropropan-2-ol as a highly polar solvent was examined for its suitability as a medium for isomerization. A solution of pteropodine in hexafluoropropan-2-ol with a concentration of 18 mg/l was allowed to rest for 8 days at 20° C. Continually, samples were taken and analyzed. […] Pyridine has been reported to be a suitable solvent for the isomerization, although its polarity is very low. Our results confirmed this, but only when at least small portions of water were present. […] Important causes of solvent polarity are the dielectricity constant and the ability to form hydrogen bonds. The correlation of dielectricity and rate of reaction was investigated (table 1). | Correlation of the rate coefficient of isomerization of pteropodine and |dielectricity constant ε in pure solvents at 50° C.^a | ^a The rate coefficient k was determined from the initial rate of | isomerization of pteropodine and, therefore, is a composite coefficient k | = k12 + k13 + k14 and has the dimension [h^-1 ]. The | coefficient k12 describes the transformation of pteropodine to | isopteropodine, k13 to speciophylline and k14 to uncarine F, | respectively. […] But it was noticed that solvents with the ability to form hydrogen bonds, like formamide, water, glycerol or methanol, effect faster isomerization than solvents without this ability. […] Consequently, mixtures of solvents were produced from one part with a high dielectricity constant and another part with the ability to form hydrogen bonds as a proton donor. Mixtures of one part formamide and one part alcohol turned out to be suitable reaction media. Water is the only solvent which combines a high dielectricity constant with the ability to form hydrogen bonds to an extent which allows satisfactory reaction rates. However, oxindole alkaloids are practically insoluble in water. Thus, it is obvious to use suitable co-solvents.

[7] = Isomerization of pteropodine in hexafluoropropan-2-ol; conditions: 18 mg/l, 8 days at 20° C.
Method: It is known from the literature that oxindole alkaloids undergo isomerization in polar solvents. Therefore hexafluoropropan-2-ol as a highly polar solvent was examined for its suitability as a medium for isomerization. A solution of pteropodine in hexafluoropropan-2-ol with a concentration of 18 mg/l was allowed to rest for 8 days at 20° C. Continually, samples were taken and analyzed. […] Pyridine has been reported to be a suitable solvent for the isomerization, although its polarity is very low. Our results confirmed this, but only when at least small portions of water were present. […] Important causes of solvent polarity are the dielectricity constant and the ability to form hydrogen bonds. The correlation of dielectricity and rate of reaction was investigated (table 1).

SMILES: COC(=O)C1=COC(C)C2CN3CCC4(C(=O)Nc5ccccc54)C3CC12 (stereo not drawn) [Isomitraphylline, isomitraphylline]
- log KO/W (physchem; pH 3): 0.43
- log KO/W (physchem; pH 5): 2.3
- log KO/W (physchem; pH 7): 2.8
- equilibrium composition ([1]; 25° C., methanol): 77.5 % per weight
- equilibrium composition ([1]; 25° C., water): 65.6 % per weight
- equilibrium composition ([1]; 37° C., methanol): 75.0 % per weight
- equilibrium composition ([1]; 37° C., water): 67.5 % per weight
- equilibrium composition ([1]; 50° C., methanol): 73.7 % per weight
- equilibrium composition ([1]; 50° C., water): 68.0 % per weight
- resulting equilibrium (water) ([2]; pH 3, 25° C.): 11.9 % per weight
- resulting equilibrium (water) ([2]; pH 5, 25° C.): 0.5 % per weight
- resulting equilibrium (water) ([2]; pH 7, 25° C.): 0.08 % per weight
- resulting equilibrium (octanol) ([2]; pH 3, 25° C.): 32.0 % per weight
- resulting equilibrium (octanol) ([2]; pH 5, 25° C.): 93.9 % per weight
- resulting equilibrium (octanol) ([2]; pH 7, 25° C.): 78.8 % per weight

SMILES: COC(=O)C1=CO[C@@H](C)[C@@H]2CN3CC[C@@]4(C(=O)Nc5ccccc54)[C@@H]3C[C@H]12 [Isopteropodine, isopteropodine]
- equilibrium composition ([3]; 25° C., methanol): 75.4 % per weight
- equilibrium composition ([3]; 25° C., water): 60.9 % per weight
- equilibrium composition ([3]; 37° C., methanol): 75.5 % per weight
- equilibrium composition ([3]; 37° C., water): 59.6 % per weight
- equilibrium composition ([3]; 50° C., methanol): 73.5 % per weight
- equilibrium composition ([3]; 50° C., water): 59.4 % per weight

SMILES: COC(=O)C1=COC(C)C2CN3CCC4(C(=O)Nc5ccccc54)C3CC12 (stereo not drawn) [Mitraphylline, mitraphylline]
- log KO/W (physchem; pH 3): -0.24
- log KO/W (physchem; pH 5): 0.67
- logD (physchem; pH 7, log KO/W): 2.5
- equilibrium composition ([1]; 25° C., methanol): 22.5 % per weight
- equilibrium composition ([1]; 25° C., water): 34.4 % per weight
- equilibrium composition ([1]; 37° C., methanol): 25.0 % per weight
- equilibrium composition ([1]; 37° C., water): 32.5 % per weight
- equilibrium composition ([1]; 50° C., methanol): 26.3 % per weight
- equilibrium composition ([1]; 50° C., water): 32.0 % per weight
- resulting equilibrium (water) ([2]; pH 3, 25° C.): 35.6 % per weight
- resulting equilibrium (water) ([2]; pH 5, 25° C.): 1.0 % per weight
- resulting equilibrium (water) ([2]; pH 7, 25° C.): 0.12 % per weight
- resulting equilibrium (octanol) ([2]; pH 3, 25° C.): 20.5 % per weight
- resulting equilibrium (octanol) ([2]; pH 5, 25° C.): 4.6 % per weight
- resulting equilibrium (octanol) ([2]; pH 7, 25° C.): 21.0 % per weight

SMILES: COC(=O)C1=COC(C)C2CN3CCC4(C(=O)Nc5ccccc54)C3CC12 (stereo not drawn) [Pteropodine, pteropodine]
- dependence of isomer equilibrium mixture on pH ([4]; acidic solutions): depended characteristically on the pH value
- dependence of isomer equilibrium mixture on pH ([4]; neutral or alkaline solutions): independent of pH in neutral or alkaline solutions
- rate of reaction with increasing proton concentration ([4]; pH 2 to 9): decreased with increasing proton concentration
- acceleration of the reaction by an increase of temperature by 12° C. (factor) [5]: 5
- equilibrium composition ([3]; 25° C., methanol): 22.9 % per weight
- equilibrium composition ([3]; 25° C., water): 29.6 % per weight
- equilibrium composition ([3]; 37° C., methanol): 22.6 % per weight
- equilibrium composition ([3]; 37° C., water): 29.8 % per weight
- equilibrium composition ([3]; 50° C., methanol): 23.5 % per weight
- equilibrium composition ([3]; 50° C., water): 29.6 % per weight
- rate coefficient of isomerization k ([6]; dimethyl sulfoxide): 0.00007 h⁻¹
- rate coefficient of isomerization k ([6]; dioxane): 0.0000004 h⁻¹
- rate coefficient of isomerization k ([6]; formamide): 0.005 h⁻¹
- rate of isomerization k ([6]; formamide-hexafluorpropan-2-ol (1:1)): 0.0037 h⁻¹
- rate of isomerization k ([6]; formamide-methanol (1:1)): 0.0050 h⁻¹
- rate coefficient of isomerization k ([6]; glycerol): 0.0072 h⁻¹
- rate coefficient of isomerization k ([6]; methanol): 0.0020 h⁻¹
- rate of isomerization k ([6]; methanol-dimethyl sulfoxide (1:1)): 0.0018 h⁻¹
- rate of isomerization k ([6]; methanol-dioxane (1:1)): 0.0024 h⁻¹
- rate coefficient of isomerization k ([6]; pyridine): 0.00002 h⁻¹
- rate coefficient of isomerization k ([6]; water): 1.11 h⁻¹
- rate of isomerization k ([6]; water-acetonitrile (1:1)): 0.042 h⁻¹
- rate of isomerization k ([6]; water-dioxane (1:1)): 0.0012 h⁻¹
- rate of isomerization k ([6]; water-formamide (1:1)): 0.067 h⁻¹
- rate of isomerization k ([6]; water-methanol (1:1)): 0.043 h⁻¹
- rate of isomerization k ([6]; water-pyridine (1:1)): 0.002 h⁻¹
- isomerization [7]: No isomerization was observed

SMILES: COC(=O)C1=COC(C)C2CN3CCC4(C(=O)Nc5ccccc54)C3CC12 (stereo not drawn) [Speciophylline, speciophylline]
- equilibrium composition ([3]; 25° C., methanol): 0.4 % per weight
- equilibrium composition ([3]; 25° C., water): 4.3 % per weight
- equilibrium composition ([3]; 37° C., methanol): 0.5 % per weight
- equilibrium composition ([3]; 37° C., water): 4.5 % per weight
- equilibrium composition ([3]; 50° C., methanol): 1.0 % per weight
- equilibrium composition ([3]; 50° C., water): 4.6 % per weight

SMILES: COC(=O)C1=COC(C)C2CN3CCC4(C(=O)Nc5ccccc54)C3CC12 (stereo not drawn) [Uncarine F, uncarine F]
- equilibrium composition ([3]; 25° C., methanol): 1.3 % per weight
- equilibrium composition ([3]; 25° C., water): 5.2 % per weight
- equilibrium composition ([3]; 37° C., methanol): 1.4 % per weight
- equilibrium composition ([3]; 37° C., water): 6.1 % per weight
- equilibrium composition ([3]; 50° C., methanol): 2.0 % per weight
- equilibrium composition ([3]; 50° C., water): 6.4 % per weight
